# Values of other authors, collected in patent US8937168B2, “Method of producing purified rebaudioside A compositions using solvent/antisolvent crystallization” (Cargill, Incorporated, priority 2007, dated 2015).
# Details: relative to sucrose; background statement
structure (smiles),measurement,value
"C=C1C[C@@]23CC[C@H]4[C@@](C)(CCC[C@@]4(C)C(=O)O[C@@H]4O[C@H](CO)[C@@H](O)[C@H](O)[C@H]4O)[C@@H]2CC[C@]1(O[C@@H]1O[C@H](CO)[C@@H](O)[C@H](O[C@@H]2O[C@H](CO)[C@@H](O)[C@H](O)[C@H]2O)[C@H]1O[C@@H]1O[C@H](CO)[C@@H](O)[C@H](O)[C@H]1O)C3 [Rebaudioside A, rebaudioside A]",times the sweetness of sucrose,250-450 times
